From patent US8703756B2, “Synthetic procedure and cancer treatment with cisplatin derivatives” (The Board of Regents of the Nevada System of Higher …, priority 2012, dated 2014)

Experiments:
[1] = tested on mice; cited from earlier work
[2] = tested on: A549 human lung cancer cells; assay: MTS cell proliferation assay, A549 lung cancer cells; type: cell-based; conditions: for effects in this experimental setting: human cancer cell line setting of b48
Description: A series of cisplatin analogs of the formula (4,4′-bis[RO]-2,2′-bipyridine)PtCl2 [where, R=—(CH2)nCH3, —(CH2)nOCH3, —(CH2)n[O(CH2)m]yO(CH2)zCH3 (n=1-10; m, y, z=0-10)] were synthesized and characterized using ^1H NMR, ^13C NMR spectroscopy, and elemental analysis. The antitumor activities of these compounds were examined in a lung cancer cell line (A549) using the MTS cell proliferation assay and the results were compared to that of cisplatin and cisplatin derivatives.
(§1) Cells were cultured at a density of 2.1×10^3 cells per well in flat bottomed 96-well plates in 100 μl of medium supplemented with 10% fetal bovine serum (FBS), 25 mM HEPES buffer (pH 7.4), Penicillin (100 U/ml) and Streptomycin (100 μg/ml) and incubated at 37° C. in a humidified, 5% CO2 atmosphere for 2 days. The cells were then treated with DMSO or the appropriate drugs for 1 hour, washed thrice with 100 μl phosphate buffered saline (PBS), and incubated in 100 μl of fresh medium. After 2 days, the medium was replace with 120 μl of medium containing 50 μM phenazine ethosulfate (PES) and 317 μg/mL CellTiter 96® Aqueous One Solution Reagent (MTS) (Promega, Madison, Wis.). After 4 hours in culture the cell viability was determined by measuring the absorbance at 490 nm using a Tecan Infinite M1000 plate reader.
Cells were treated with CDDP or the platinum analogs at various concentrations for 1 hour and the viability was determined 48 h post-treatment using the MTS assay.
Cells were treated with CDDP or the platinum analogs at various concentrations for 48 hour and the viability was determined post-treatment using the MTS assay.

[3] = tested on: T-47D human breast cancer cells; assay: MTS assay, T-47D breast cancer cells; type: cell-based; conditions: up to a 1 mM concentration
Description: as §1
(§2) Cells were treated with CDDP or the platinum analog at various concentrations for 1 hour and the viability was determined 48 h post-treatment using the MTS assay.
(§3) This is a table comparison of EC50 (μM) determined from MTS assay data of the various cell lines treated with CDDP or the analog where R=(CH2)3CH3.

[4] = tested on: MDA-MB-435 human melanoma cancer cells; assay: MTS assay, MDA-MB-435 melanoma cancer cells; type: cell-based; conditions: MDA-MB-435, up to a 1 mM concentration
Description: as §1, §2, §3

[5] = tested on: MCF7 human breast cancer cells; assay: MTS assay, MCF7 breast cancer cells; type: cell-based; conditions: MCF7, up to a 1 mM concentration
Description: as §1, §2, §3

[6] = tested on: DU-145 human prostate cancer cells; assay: MTS assay, DU-145 prostate cancer cells; type: cell-based; conditions: DU-145, up to a 1 mM concentration
Description: as §1, §2, §3

[7] = tested on: HCC38 human breast cancer cells; assay: MTS assay, HCC38 breast cancer cells; type: cell-based; conditions: HCC38, up to a 1 mM concentration
Description: as §1, §2, §3

Pd(II)(cis-2,2′-bipyridine)(NO3)2
percent increased life span (% ILS) [1]: 55-70%

O=C(O)C(=O)O.[NH-][C@@H]1CCCC[C@H]1[NH-].[Pt+2] [oxaliplatin]
effects in this experimental setting [2]: lack of effects

N.N.[Cl][Pt][Cl] [cisplatin, cis-diamminedichloroplatinum]
effect on the cell line [3]: little or no effect
effect on the cell line [4]: little or no effect
percent increased life span (% ILS) [1]: 65-80%
effect on the cell line [5]: little or no effect
effectiveness, 48 h treatment ([2]; A549, concentrations higher than 500 μM): not very effective
effects in this experimental setting [2]: lack of effects
effect on the A549 cells ([2]; one hour treatment, up to a 1 mM concentration): no effect
effect on the cell line [6]: little or no effect
effect on the cell line [7]: little or no effect

N.N.O=C([O-])C1(C(=O)[O-])CCC1.[Pt+2] [carboplatin]
effects in this experimental setting [2]: lack of effects
